Values of other authors, collected in publication PMC9669016, “First-in-human phase Ia study of the PI3Kα inhibitor CYH33 in patients with solid tumors” (Nature Communications, 2022).
Where two headings read alike, the source gives them in different places.

How the values were obtained:
PI3Kβ, PI3Kδ, and PI3Kγ = test system: PI3Kβ, PI3Kδ, and PI3Kγ; parameters: method as in PMID 33109399; conditions: read-out: IC50 range; cited from earlier work
[1] = parameters: method as in Study Protocol CYH33-101 Table 2; conditions: ref Study Protocol CYH33-101 Table 2; cited from earlier work
[2] = test system: more than 300 other kinases, including PIKK family; parameters: method as in Investigator's Brochure (IB) 12; conditions: ref Investigator's Brochure (IB) 12; cited from earlier work
[3] = test system: KYSE410 human esophageal cancer xenograft; parameters: method as in Investigator's Brochure (IB) 12; conditions: ref Investigator's Brochure (IB) 12, cited from earlier work; for inhibition rate (tumor growth): multiple doses
[4] = test system: KYSE410, KYSE510, EC104, EC063, EC074 xenograft models; parameters: method as in Investigator's Brochure (IB) 12; conditions: ref Investigator's Brochure (IB) 12, cited from earlier work
[5] = parameters: method as in Investigator's Brochure (IB) 12; conditions: ref Investigator's Brochure (IB) 12, cited from earlier work; for absolute bioavailability: 1 mg/kg
[6] = parameters: method as in Investigator's Brochure (IB) 12; conditions: ref Investigator's Brochure (IB) 12, cited from earlier work
CYP2C19 = test system: CYP2C19; parameters: method as in Investigator's Brochure (IB) 12; conditions: up to 100 µM; ref Investigator's Brochure (IB) 12; cited from earlier work
CYP2D6 = test system: CYP2D6; parameters: method as in Investigator's Brochure (IB) 12; conditions: up to 100 µM; ref Investigator's Brochure (IB) 12; cited from earlier work
CHL = test system: CHL; parameters: method as in Investigator's Brochure (IB) 12; conditions: ref Investigator's Brochure (IB) 12; cited from earlier work

COC(=O)Nc1cc(C(F)(F)F)c(-c2nc(N3CCOCC3)c3cc(CN4CCN(S(C)(=O)=O)CC4)cn3n2)cn1 [CYH33, methyl (5-(6-((4-(methylsulfonyl)piperazin-1-yl)methyl)−4-morpholinopyrrolo[2,1-f][1,2,4]triazin-2-yl)−4-(trifluoromethyl)pyridin-2-yl)carbamate]
IC50 (PI3Kβ, PI3Kδ, and PI3Kγ): 0.043 to 0.611 µM
log P [1]: 2.89
effects on more than 300 other kinases, including other PIKK family members [2]: slight
T/C ratio ([3]; 12.5 mg/kg oral for 21 days): approximately 30%
inhibition rate (tumor growth) ([3]; 12.5 mg/kg): > 67%
inhibition rate (tumor growth) ([3]; 25 mg/kg): > 90%
inhibition rate (tumor growth) ([3]; 50 mg/kg): > 95%
T/C% ([4]; 50 mg/kg dose group, subcutaneous xenograft tumor model): < 20%
effective dose in nude mice ([4]; oral for 21 days): 12.5 mg/kg
absolute bioavailability ([5]; female rats): 53.7%
plasma clearance CL ([5]; female rats): 2.04 L/h/kg
t1/2 ([5]; female rats): 6.7 h
exposure AUC0-t in female rats relative to male rats ([5]; intragastric administration): more than 12 times
absolute bioavailability ([5]; male rats): 19.0%
plasma clearance CL ([5]; male rats): 0.29 L/h/kg
t1/2 ([5]; male rats): 1.3 to 4.5 h
Vss, steady-state volume of distribution ([5]; rats): 1.96 L/kg
accumulation after continuous administration for 7 days ([5]; rats): not significant
number of metabolites detected in vivo [6]: 14
urinary excretion [6]: less than 1 % of the dose
cumulative excretion of parent drug in feces ([6]; within 96 h after administration): approximately 24 % of the dose
inhibition of CYP2C19 (CYP2C19): did not inhibit
inhibition of CYP2D6 (CYP2D6): did not inhibit
CHL chromosomal aberration assay result (CHL): negative
